Measured values taken from patent US20260116892A1, “CRYSTAL FORM OF COMPOUND AND PREPARATION METHOD THEREFOR” (NANJING INNOCARE PHARMA TECH CO., LTD., priority 2022, published 2026).
“Also recorded” adds a separate entry of the source.

Assays:
Assay type in all cases: physicochemical
[1] = Hygroscopicity assessment by dynamic vapor sorption (DVS); details: 25° C.
Method: The “hygroscopicity” described in the present invention refers to the characteristic of the substance's ability or degree of absorbing water under the conditions of certain temperature and humidity. Regarding to the characteristic description of hygroscopicity and the definition of hygroscopic weight gain (performing experiments according to the method of guideline 9103 of Pharmacopoeia of the People's Republic of China (2015) Volume IV. experimental conditions: 25° C.±1° C., 80%±2% of relative humidity):
deliquescence: sufficient water absorption to form a solution; very hygroscopic: hygroscopic weight gain of not less than 15%; phygroscopic: hygroscopic weight gain of less than 15% but not less than 2%; slightly hygroscopic: hygroscopic weight gain of less than 2% but not less than 0.2%; not or almost not hygroscopic: hygroscopic weight gain of less than 0.2%.
The dynamic vapor sorption (DVS) diagram described in the present invention was acquired using an Intrinsic dynamic vapor sorption instrument produced by SMS (Surface Measurement Systems Ltd.). The method parameters of the dynamic vapor sorption described in the present invention are as follows: […]
About 30 mg of the crystalline form A of the present invention was taken and subjected to a dynamic vapor sorption test using a dynamic vapor sorption (DVS). […] The XRPD was measured before and after the test.

[2] = Suspension competition experiment between the crystalline forms in solution; details: equal amount of forms A/B in saturated solution of isopropyl alcohol and water, room temperature, stirring 2 days
Method: The transformation relationship between the crystalline forms was studied by a suspension competition experiment in the solution. The suspension competition between the crystalline form A and the crystalline form B was carried out at room temperature. The crystalline form A was obtained by adding equal amount of the crystalline form A/B to the saturated solution of isopropyl alcohol and water with suspending and stirring for 2 days.

[3] = Stability assessment of the crystalline form A (solid, accelerated and 12 months)
Excerpt: The “stability” described in the present invention refers to that neither degradation of the crystalline form has been found nor transformation to other crystalline form has been detected in the determination of the crystalline form by analytical means such as LC detection, XRPD, etc.
The solid sample of crystalline form A was exposed to high temperature, high humidity and light (open) for au one month accelerated stability study to observe the purity of the sample and the stability of the crystalline form.
The solid sample of crystalline form A was placed under the 30° C./65% RH (closed) for a 12 months stability study to observe the purity of the sample and the stability of the crystalline form (XRPD pattern).

[4] = 12 months, 30° C./65% RH (closed)
[5] = Acceleration for 1 month (25° C., 90% ± 5% RH), open
[6] = Acceleration for 1 month (60° C.), open
[7] = Acceleration for 13 days (10 days of light exposure, 3 days of UV exposure), open

C[C@H]1CNC(=O)Nc2cnn3ccc(nc23)N2C[C@@H](F)C[C@@H]2c2cc(F)cnc2O1 [crystalline form A, (2^2R,2^4S,5S)-2^4,3^5-difluoro-5-methyl-4-oxa-7,9-diaza-1(5,3)-pyrazolo[1,5-a]pyrimidin-3(3,2)-pyridin-2(1,2)-pyrrolidincyclononan-8-one]
Crystalline form before and after DVS test (XRPD) ([1]; 0% RH to 95% RH): remained unchanged
Weight gain (DVS) ([1]; 80% relative humidity): 0.46%
Thermodynamic stability / transformation in suspension competition [2]: better thermodynamic stability
Purity (%) ([3]; 0 month (start of stability study)): 98.9%
Crystalline form (XRPD) [3, 4]: Unchanged
Purity (%) [3, 4]: 99.4%
Stability (conclusion in words) ([3]; 60° C. 1 month, 25° C./90%±5% RH 1 month, light 13 days, 30° C./65% RH 12 months): stable state; also recorded: good stability
Crystalline form (XRPD) [3, 5]: Unchanged
Purity (%) [3, 5]: 98.5%
Crystalline form (XRPD) [3, 6]: Unchanged
Purity (%) [3, 6]: 98.3%
Crystalline form (XRPD) [3, 7]: Unchanged
Purity (%) [3, 7]: 99.4%

C[C@H]1CNC(=O)Nc2cnn3ccc(nc23)N2C[C@@H](F)C[C@@H]2c2cc(F)cnc2O1 [crystalline form B, (2^2R,2^4S,5S)-2^4,3^5-difluoro-5-methyl-4-oxa-7,9-diaza-1(5,3)-pyrazolo[1,5-a]pyrimidin-3(3,2)-pyridin-2(1,2)-pyrrolidincyclononan-8-one]
Thermodynamic stability / transformation in suspension competition [2]: can be transformed into the crystalline form A
